Test results taken from US20260034192A1 (University of Saskatchewan, priority 2022, published 2026).
“And” between values parts separate entries of the source, which are not always exact repeats. Identical values can stand only once. “Also recorded” adds a separate entry of the source. Square brackets hold non-standard residues; d marks the D form. Peptide text beside a SMILES is read from it. dPhe(4-Cl) = N[C@H](Cc1ccc(Cl)cc1)C(=O)O; d2Nal = N[C@H](Cc1ccc2ccccc2c1)C(=O)O; dCit = NC(=O)NCCC[C@@H](N)C(=O)O; d3Pal = N[C@H](Cc1cccnc1)C(=O)O

Tests used:
[1] = system: GnRH-induced plasma LH levels and ovulation; assay: GnRH challenge in heifers pre-treated with GnRH antagonists: plasma LH and ovulation (Example 10); type: in vivo, cattle; conditions: for Plasma LH response to GnRH challenge: heifers pre-treated with antagonist 60 minutes before GnRH injection
Experimental: Methods: Pubertal heifers (n=10) with a functional CL were selected at the Federal University of Santa Maria. Heifers were administered an intramuscular (i/m) injection of prostaglandin F2a analog (PGF; Lutalyse 5 ml or Estrumate 2 ml) to induce CL regression. Heifers were randomly placed into 4 treatment groups at the time of PGF injection: Trt1 (n=2, 3 mg of Abarelix); Trt2 (n=2, 3 mg of Degarelix), Trt3 (n=2, 3 mg of Relugolix) and Trt 4 (n=4; Cetrorelix 3 mg). Heifers were treated with these GnRH antagonists 1.5 days (36 hr) after the PGF injection and the GnRH antagonist treatment time point was defined as −60 mins. Heifers were treated with GnRH ([…] of Fertagyl i/m) at 0 mins to induce ovulation. Jugular venipuncture plasma samples were collected every 60 minutes for 3 hours (from −60 min to 120 minutes, with t=0 min when GnRH is administered). Plasma samples were kept at 4C overnight and LH analysis was performed the next day using a bovine-specific ELISA commercial kit. Transrectal ultrasonography was conducted to the time of GnRH injection (Time 0 hr) and 2 days later (48 hr after GnRH injection) to record the size of dominant follicle and to detect ovulation after treatment.

[2] = system: Hereford crossbred heifers; assay: Cetrorelix pre-treatment before kisspeptin-10 in low-progesterone heifer model (Example 1); type: in vivo, cattle
Experimental: Methods: The human Kisspeptin-10 (hKP-10) peptide (YNWNSFGLRF-NH2; SEQ ID NO: 1) was custom synthetized at >95% of purity (MW: 1318.44 g/mol) by GenScript USA Inc, Piscataway, NJ, USA. The sequence is based on the predicted C-terminal region (112-121-NH2) of human metastin (Gen Bank accession #AY117143) and has been previously used in cattle. The peptide was previously tested for solubility and was dissolved in ultrapure water at 10 mg/mL.
The heifers were maintained in outdoor pens at the University of Saskatchewan Goodale Research Farm (52° north and 106° west). Heifers were fed barley silage and had hay and water ad libitum. A mineral salt block was available to heifers throughout the study period. All procedures were performed in accordance with Canadian Council on Animal Care and were approved by the University of Saskatchewan Protocol Review Committee.
Immediately after ultrasound examination, heifers were given PGF2a twice at an interval of 12-hours. The low-progesterone bovine model described previously (Leonardi et al. 2019) was used to test the hypothesis. Briefly, the ovaries were examined daily by ultrasonography to detect ovulation. Three days after ovulation, follicles ≥5 mm in diameter in both ovaries were ablated by transvaginal ultrasound-guided follicle aspiration, inducing the emergence of new follicular wave 1.5 days after the procedure (Bergfelt et al. 1994). After follicular ablation, a progesterone device was placed in the vagina (CIDR; Zoetis). The day of wave emergence (Day 0) was defined as the day when the follicle of wave was first recorded (4 to 5 mm in diameter) with concurrent increase in diameter. Heifers were given PGF2α im on Days 3.5 and 4 (i.e., 8 and 8.5 days after ovulation) to cause luteolysis, however, the CIDR devices were left in place until Day 12 to maintain a low-progesterone milieu sufficient to prevent spontaneous ovulation. On Day 6, an indwelling jugular catheter was placed as described (Bergfelt et al. 1997) and heifers were assigned randomly to three groups (n=5 per group): 1) 3 iv doses of 15 mg human kisspeptin-10 at 1 h intervals (Kp10 group), 2) pretreatment with single im dose of Cetrorelix acetate (20 μg/Kg of body weight, GnRH antagonist—Sigma #C5249 diluted in 5% D-Manitol w/v, Sigma #M4125) followed 3 h later with 3 iv doses of 15 mg human kisspeptin-10 at 1 h intervals (Cetrorelix group), or 3) 3 iv doses of normal saline at 1 h intervals (Control group). Following treatment (on Day 6), ovarian ultrasound examinations were performed daily until the end of the experiment to detect ovulation of the extant dominant follicle (i.e., dominant follicle present at the time of treatment) or of the dominant follicle originating from a subsequent wave. The progesterone device was withdrawn on Day 12 (i.e., thirteen days after insertion) and ultrasound examinations were continued until ovulation was detected.
Blood samples and hormone assays: Serial blood samples on the day of treatment were collected at 15 minute intervals from −30 to 150 min (0 min=time of first hKP-10 or saline injection) using the indwelling jugular catheter. All blood samples were collected in heparinized tubes (Vacutainer, BD, Franklin Lakes NJ, USA). Immediately after sampling, tubes were centrifuged at 1,500×g for 15 min, and plasma was separated and stored at −20° C.
The plasma samples from both experiments were analyzed for LH and progesterone concentration at the University of Wisconsin (Madison, WI, USA) in Dr O. J. Ginther's Research Laboratory. Plasma LH concentrations were measured with a validated radioimmunoassay for cattle (Bolt et al. 1990) with modifications as reported Ginther et al. 1999). Briefly, LH concentrations were measured in duplicate using USDA-bLH-B-6 for ^125I-iodination and for preparing reference standards, and USDA-309-684P as the primary antibody (National Hormone and Pituitary Program, Torrance, CA, USA). […]

[3] = individual heifers, 3 mg antagonist 60 min before GnRH
[4] = individual heifers, after GnRH injection, 3 mg antagonist at −60 min
[5] = Day 6 of wave, low progesterone, Kp10 3 x 15 mg iv, Cetrorelix 20 μg/Kg im 3 h before Kp10
[6] = Kp10 3 x 15 mg iv, Cetrorelix 20 μg/Kg im 3 h before Kp10

## CC(=O)N[C@H](Cc1ccc2ccccc2c1)C(=O)N[C@H](Cc1ccc(Cl)cc1)C(=O)N[C@H](Cc1cccnc1)C(=O)N[C@@H](CO)C(=O)N[C@@H](Cc1ccc(O)cc1)C(=O)N[C@H](CCCNC(N)=O)C(=O)N[C@@H](CC(C)C)C(=O)N[C@@H](CCCNC(=N)N)C(=O)N1CCC[C@H]1C(=O)N[C@H](C)C(N)=O [Cetrorelix, N-acetyl-3-(2-naphthyl)-D-alanyl-4-chloro-D-phenylalanyl-3-(3-pyridyl)-D-alanyl-L-seryl-L-tyrosyl-D-citrullyl-L-leucyl-L-arginyl-L-prolyl-D-alaninamide] (Ac-[d2Nal][dPhe(4-Cl)][d3Pal]SY[dCit]LRP[dA]-NH2)
[1]
  Plasma LH response to GnRH challenge: did not register an increase in LH
[1]; listed as cetrorelix
  Plasma LH response to GnRH challenge: LH levels remained unchanged; also recorded: block the GnRH-induced LH release
[1]; heifers, 3 mg antagonist 60 min before GnRH
  Ovulation (Yes/No) within 48 hr of GnRH treatment: No
[1]; heifers, 3 mg antagonist 60 min before GnRH, listed as cetrorelix
  Ovulation (Yes/No) within 48 hr of GnRH treatment: prevent GnRH-induced ovulations
[1]; heifers, after GnRH injection
  Plasma LH concentration at 60 minute, group Mean: 12.83 mIU/ml
  Plasma LH concentration at 120 minute, group Mean: 12.18 mIU/ml
[1]; heifers, time of 3 mg GnRH antagonist injection
  Plasma LH concentration at −60 minute, group Mean: 11.63 mIU/ml
[1]; heifers, time of GnRH injection
  Plasma LH concentration at 0 minute, group Mean: 10.07 mIU/ml
[1]; [3]
  Dominant follicle diameter (mm) 48 hr after GnRH Injection: 9.8 mm and 12 mm
  Dominant follicle diameter (mm) at GnRH injection: 7.5 mm and 10.5 mm
[1]; [4]
  Plasma LH concentration at 60 minute: 18.33 mIU/ml and 22.72 mIU/ml and 5.12 mIU/ml and 5.15 mIU/ml
  Plasma LH concentration at 120 minute: 23.74 mIU/ml and 15.04 mIU/ml and 4.60 mIU/ml and 5.32 mIU/ml
[1]; individual heifers, time of 3 mg GnRH antagonist injection, 60 mins before GnRH
  Plasma LH concentration at −60 minute: 24.29 mIU/ml and 12.03 mIU/ml and 5.24 mIU/ml and 4.96 mIU/ml
[1]; individual heifers, time of GnRH injection, 3 mg antagonist at −60 min
  Plasma LH concentration at 0 minute: 18.10 mIU/ml and 12.23 mIU/ml and 5.29 mIU/ml and 4.66 mIU/ml
[2]; [5]
  Dominant follicle diameter 24 h after treatment: 13.38 ± 0.55 mm
  Dominant follicle diameter 48 h after treatment: 12.91 ± 0.55 mm
  Dominant follicle diameter at time of treatment: 13.01 ± 0.68 mm
[2]; Day 6 of wave, low progesterone, Kp10 3 x 15 mg iv, Cetrorelix single im 20 μg/Kg 3 h before Kp10
  Emergence of a new follicular wave after treatment: 3.40 ± 0.75 days and 3.4 days
[2]; Day 6 of wave, low progesterone, Kp10 3 x 15 mg iv, Cetrorelix single im 20 μg/Kg 3 h before Kp10, listed as Cetrorelix acetate
  Emergence of a new follicular wave after treatment: about 3.40±0.75 days
[2]; Day of follicular wave
  Day of ovulation of new dominant follicles after CIDR removal (Day 12): 15
[2]; [6]
  Heifers in which a new wave emergence occurred: 5 of 5
  Number of ovulations after CIDR removal on Day 12: Extant dominant follicle: 0/5
  Number of ovulations after CIDR removal on Day 12: New dominant follicle: 5/5
  Plasma LH concentration / kisspeptin-induced LH surge: suppressed the kisspeptin-induced LH surge
[2]; after kisspeptin and GnRH antagonist treatment
  Time by which the dominant follicle entered the regression phase: ≤ 72 h
